Data as given in patent publication US12116357B2, “Heteroaryl-triazole and heteroaryl-tetrazole compounds as pesticides” (Bayer Aktiengesellschaft, priority 2018, dated 2024).
Like-named read-outs stand apart in the source and are kept apart here.

Key:
Ctenocephalides felis = Ctenocephalides felis oral test; assay type: in vivo; conditions: 48 h, 100 ppm in cattle blood, after 2 days
Description: (§1) • Solvent: dimethyl sulfoxide
To produce a suitable preparation of active compound, 10 mg of active compound are dissolved in 0.5 ml solvent, and the concentrate is diluted with cattle blood to the desired concentration.
Approximately 20 adult unfed cat fleas (Ctenocephalides felis) are placed in flea chambers. The blood chamber, sealed with parafilm on the bottom, are filled with cattle blood supplied with compound solution and placed on the gauze covered top of the flea chamber, so that the fleas are able to suck the blood. The blood chamber is heated to 37° C. whereas the flea chamber is kept at room temperature.
After 2 days mortality in % is determined. 100% means all the fleas have been killed; 0% means none of the fleas have been killed.

Myzus persicae = Myzus persicae oral test; assay type: in vivo; conditions: 120 h
Description: • Solvent: 100 parts by weight acetone
To produce a suitable preparation of active compound, 1 part by weight of active compound is mixed with the stated amount of solvent, and the concentrate is diluted with water to the desired concentration. 50 μl compound solution is filled in microtiter plates and 150 μl IPL41 insect medium (33%+15% sugar) is added to obtain a total volume of 200 μl per well. Afterwards the plates are sealed with parafilm through which a mixed population of the green peach aphid (Myzus persicae) can suck on the compound preparation.
After 5 days mortality in % is determined. 100% means all aphids have been killed and 0% means none of the aphids have been killed.

Phaedon cochleariae = Phaedon cochleariae spray test; assay type: in vivo; conditions: 168 h, after 7 days
Description: (§2) • Solvent: 78.0 parts by weight of acetone • 1.5 parts by weight of dimethylformamide • Emulsifier: alkylarylpolyglycol ether
(§3) To produce a suitable preparation of active compound, 1 part by weight of active compound is mixed with the stated amount of solvents and is diluted with water, containing an emulsifier concentration of 1000 ppm, to the desired concentration. Further test concentrations are prepared by dilution with emulsifier containing water.
Chinese cabbage (Brassica pekinensis) leaf disks are sprayed with a preparation of the active ingredient of the desired concentration. Once dry, the leaf disks are infested with mustard beetle larvae (Phaedon cochleariae).
After 7 days mortality in % is determined. 100% means all beetle larvae have been killed and 0% means none of the beetle larvae have been killed.

Spodoptera frugiperda = Spodoptera frugiperda spray test; assay type: in vivo; conditions: 168 h
Description: • Solvent: 78.0 parts by weight acetone • 1.5 parts by weight dimethylformamide • Emulsifier: alkylarylpolyglycol ether
as §3
Maize (Zea mays) leaf sections are sprayed with a preparation of the active ingredient of the desired concentration. Once dry, the leaf sections are infested with fall armyworm larvae (Spodoptera frugiperda).
After 7 days mortality in % is determined. 100% means all caterpillars have been killed and 0% means none of the caterpillars have been killed.

[1] = tested on: Aedes aegypti strain MONHEIM; experiment: Aedes aegypti test (surface treatment & contact assay); assay type: in vivo; conditions: 24 hours after contact, read-out: efficacy (mortality); for mortality at 20 mg/m2: surface concentration 20 mg/m^2, 30 min exposure
Description: (§4) • Solvent: Aceton+2000 ppm rapeseed oil methyl ester (RME)
In order to produce a sufficient, active ingredient containing solution it is necessary to solve the test compound in the solvent-mix (acetone at 2 mg/ml/RME 2000 ppm). This solution is pipetted onto a glazed tile and after evaporation of the acetone, adult mosquitoes of the species Aedes aegypti strain MONHEIM are placed onto the dried surface. The exposure time is 30 minutes.
(§5) Mortality in percent (%) is determined 24 hours after contact of the insects to the treated surface. 100% mortality means that all tested insects are dead, whereas 0% means that no insect died.

Boophilus microplus = Boophilus microplus injection test; assay type: in vivo; conditions: Rhipicephalus microplus, 168 h, 20 μg/animal, egg deposition after 7 days, read-out: efficacy (infertile eggs)
Description: as §1
To produce a suitable preparation of active compound, 10 mg of active compound are dissolved in 0.5 ml solvent, and the concentrate is diluted with solvent to the desired concentration.
Five adult engorged female ticks (Boophilus microplus) are injected with 1 μl compound solution into the abdomen. The ticks are transferred into replica plates and incubated in a climate chamber.
After 7 days egg deposition of fertile eggs is monitored. Eggs where fertility is not visible are stored in a climate chamber till hatching after about 42 days. An efficacy of 100% means all eggs are infertile; 0% means all eggs are fertile.

Nezara viridula = Nezara viridula spray test; assay type: in vivo; conditions: 96 h
Description: as §2
To produce a suitable preparation of active compound, 1 part by weight of active compound is mixed with the stated amount of solvent, and the concentrate is diluted with water, containing an emulsifier concentration of 1000 ppm, to the desired concentration. Further test concentrations are prepared by dilution with emulsifier containing water.
Barley plants (Hordeum vulgare) infested with larvae of the southern green stink bug (Nezara viridula) are sprayed with a test solution containing the desired concentration of the active ingredient.
After 4 days mortality in % is determined. 100% means all the stink bugs have been killed; 0% means none of the stink bugs have been killed.

Nilaparvata lugens = Nilaparvata lugens spray test; assay type: in vivo; conditions: 96 h
Description: as §2, §3
Rice plants (Oryza sativa) are sprayed with a preparation of the active ingredient of the desired concentration and the plants are infested with the brown planthopper (Nilaparvata lugens).
After 4 days mortality in % is determined. 100% means all planthoppers have been killed and 0% means none of the planthoppers have been killed.

[2] = tested on: Musca domestica strain WHO-N; experiment: Musca domestica test (surface treatment & contact assay); assay type: in vivo; conditions: 24 hours after contact, read-out: efficacy (mortality)
Description: as §4
In order to produce a sufficient, active ingredient containing solution it is necessary to solve the test compound in the solvent-mix (acetone at 2 mg/ml/RME 2000 ppm). This solution is pipetted onto a glazed tile and after evaporation of the acetone, adult flies of the species Musca domestica strain WHO-N are placed onto the dried surface. The exposure time is 30 minutes.
as §5

[3] = log P by HPLC on reversed phase columns (EEC directive 79/831 Annex V.A8); assay type: physicochemical; conditions: LC-UV, neutral range; for chromatographic logP: reversed phase HPLC column
[4] = surface concentration 4 mg/m^2, 30 min exposure
[5] = 0.001 molar ammonium acetate in water and acetonitrile (table footnote), read-out: LogP^[a]

CC(c1ncnn1-c1ncccn1)N(CC1(c2ccccc2)CC1)C(=O)c1cc(Cl)cc(C(F)(F)F)c1 (stereo not shown) [Example I-006]
mortality at 100 ppm (Ctenocephalides felis): 100% | mortality at 20 ppm (Myzus persicae): 90% | mortality at 500 g/ha (Phaedon cochleariae): 100% | mortality at 500 g/ha (Spodoptera frugiperda): 100% | mortality at 20 mg/m2 [1]: 90 to 100%

CC(c1ncnn1-c1ncccn1)N(CC1CCOCC1)C(=O)c1cc(Cl)cc(C(F)(F)F)c1 (stereo not shown) [Example I-008]
mortality at 20 ppm (Myzus persicae): 100% | mortality at 500 g/ha (Phaedon cochleariae): 100%

CC(c1ncnn1-c1ncccn1)N(CC1(C)CC1)C(=O)c1cc(Cl)cc(C(F)(F)F)c1 (stereo not shown) [Example I-009]
pest or weed control at 0.02 mg (Boophilus microplus): 80% | mortality at 100 ppm (Ctenocephalides felis): 100% | mortality at 4 ppm (Myzus persicae): 100% | mortality at 20 ppm (Myzus persicae): 100% | mortality at 500 g/ha (Nezara viridula): 100% | mortality at 500 g/ha (Phaedon cochleariae): 100% | mortality at 500 g/ha (Spodoptera frugiperda): 100%

CC(c1ncnn1-c1ncccn1)N(CC1CCCO1)C(=O)c1cc(Cl)cc(C(F)(F)F)c1 (stereo not shown) [Example I-012]
mortality at 20 ppm (Myzus persicae): 100%

CC(c1ncnn1-c1ncccn1)N(Cc1ccncc1)C(=O)c1cc(Cl)cc(C(F)(F)F)c1 (stereo not shown) [Example I-014]
pest or weed control at 0.02 mg (Boophilus microplus): 100% | mortality at 100 ppm (Ctenocephalides felis): 100% | mortality at 4 ppm (Myzus persicae): 100% | mortality at 20 ppm (Myzus persicae): 100% | mortality at 500 g/ha (Nezara viridula): 100% | mortality at 500 g/ha (Nilaparvata lugens): 100% | mortality at 500 g/ha (Phaedon cochleariae): 100% | mortality at 500 g/ha (Spodoptera frugiperda): 100%

CC(c1ncnn1-c1ncccn1)N(CC1CCOC1)C(=O)c1cc(Cl)cc(C(F)(F)F)c1 (stereo not shown) [Example I-015]
pest or weed control at 0.02 mg (Boophilus microplus): 100% | mortality at 100 ppm (Ctenocephalides felis): 100% | mortality at 20 ppm (Myzus persicae): 100% | mortality at 500 g/ha (Phaedon cochleariae): 100% | mortality at 500 g/ha (Spodoptera frugiperda): 100%

CC(c1ncnn1-c1ncccn1)N(Cc1ccc(C#N)cc1)C(=O)c1cc(Cl)cc(C(F)(F)F)c1 (stereo not shown) [Example I-018]
pest or weed control at 0.02 mg (Boophilus microplus): 90% | mortality at 100 ppm (Ctenocephalides felis): 100% | mortality at 4 ppm (Myzus persicae): 100% | mortality at 20 ppm (Myzus persicae): 100% | mortality at 500 g/ha (Nezara viridula): 100% | mortality at 500 g/ha (Phaedon cochleariae): 100% | mortality at 500 g/ha (Spodoptera frugiperda): 100% | mortality at 4 mg/m2 [1, 4]: 80 to 100% | mortality at 20 mg/m2 [1]: 90 to 100% | mortality at 4 mg/m2 [2, 4]: 90 to 100% | mortality at 20 mg/m2 ([2]; surface concentration 20 mg/m^2, 30 min exposure): 90 to 100%

CC(c1ncnn1-c1ncccn1)N(Cc1cccnc1)C(=O)c1cc(Cl)cc(C(F)(F)F)c1 (stereo not shown) [Example I-019]
pest or weed control at 0.02 mg (Boophilus microplus): 100% | mortality at 100 ppm (Ctenocephalides felis): 90% | mortality at 4 ppm (Myzus persicae): 100% | mortality at 20 ppm (Myzus persicae): 100% | mortality at 500 g/ha (Nezara viridula): 100% | mortality at 500 g/ha (Nilaparvata lugens): 100% | mortality at 500 g/ha (Phaedon cochleariae): 100% | mortality at 500 g/ha (Spodoptera frugiperda): 100% | mortality at 20 mg/m2 [1]: 90 to 100%

COc1ccc(CN(C(=O)c2cc(Cl)cc(C(F)(F)F)c2)C(C)c2ncnn2-c2ncccn2)cc1 (stereo not shown) [Example I-020]
pest or weed control at 0.02 mg (Boophilus microplus): 80% | mortality at 100 ppm (Ctenocephalides felis): 100% | mortality at 20 ppm (Myzus persicae): 100% | mortality at 500 g/ha (Nezara viridula): 100%

CC(NCc1ccccn1)c1ncnn1-c1ncccn1 (stereo not shown) [a-001, N-(pyridin-2-ylmethyl)-1-[1-(pyrimidin-2-yl)-1H-1,2,4-triazol-5-yl]ethanamine]
chromatographic logP [3, 5]: 0.72 | chromatographic logP ([3]; 0.001 molar ammonium acetate in water and acetonitrile, read-out: log P^[b]): 0.77

CC(NC1CC1)c1ncnn1-c1ncccn1 (stereo not shown) [a-002]
chromatographic logP [3, 5]: 0.75

CC(NCC1CCOCC1)c1ncnn1-c1ncccn1 (stereo not shown) [a-003]
chromatographic logP [3, 5]: 0.85

CC(NCC1CCCC1)c1ncnn1-c1ncccn1 (stereo not shown) [a-004]
chromatographic logP [3, 5]: 1.67

CC(NCC1(c2ccccc2)CC1)c1ncnn1-c1ncccn1 (stereo not shown) [a-005]
chromatographic logP [3, 5]: 1.9

COCCNC(C)c1ncnn1-c1ncccn1 (stereo not shown) [a-006]
chromatographic logP [3, 5]: 0.52

CC(NCC1CSC1)c1ncnn1-c1ncccn1 (stereo not shown) [a-007]
chromatographic logP [3, 5]: 1.12

CC(NCC1CS(=O)(=O)C1)c1ncnn1-c1ncccn1 (stereo not shown) [a-008]
chromatographic logP [3, 5]: 0.51

CC(NCCc1ccc(F)cc1)c1ncnn1-c1ncccn1 (stereo not shown) [a-009]
chromatographic logP [3, 5]: 1.62

CC(NCC1(C)CC1)c1ncnn1-c1ncccn1 (stereo not shown) [a-010]
chromatographic logP [3, 5]: 1.73

CC(NCc1ncccn1)c1ncnn1-c1ncccn1 (stereo not shown) [a-011]
chromatographic logP [3, 5]: 0.38

CC(NCC1CCCO1)c1ncnn1-c1ncccn1 (stereo not shown) [a-012]
chromatographic logP [3, 5]: 0.8

CC(NCC1CCOC1)c1ncnn1-c1ncccn1 (stereo not shown) [a-013]
chromatographic logP [3, 5]: 0.66

CC(NCc1ccncc1)c1ncnn1-c1ncccn1 (stereo not shown) [a-014]
chromatographic logP [3, 5]: 0.53

CC(NCC1CCOC1)c1ncnn1-c1ncccn1 (stereo not shown) [a-015]
LogP^[a] ([3]; 0.001 molar ammonium acetate in water and acetonitrile (table footnote)): 0.66

CC(NCC1CCCCC1)c1ncnn1-c1ncccn1 (stereo not shown) [a-016]
chromatographic logP [3, 5]: 2.03

CSCCNC(C)c1ncnn1-c1ncccn1 (stereo not shown) [a-017]
chromatographic logP [3, 5]: 0.92

CC(NCc1ccc(C#N)cc1)c1ncnn1-c1ncccn1 (stereo not shown) [a-018]
chromatographic logP [3, 5]: 1.35

CC(NCc1cccnc1)c1ncnn1-c1ncccn1 (stereo not shown) [a-019]
chromatographic logP [3, 5]: 0.68

COc1ccc(CNC(C)c2ncnn2-c2ncccn2)cc1 (stereo not shown) [a-020]
chromatographic logP [3, 5]: 1.41

CC(NC1COC1)c1ncnn1-c1ncccn1 (stereo not shown) [a-021]
chromatographic logP [3, 5]: 0.26

CC(NCC1OCCO1)c1ncnn1-c1ncccn1 (stereo not shown) [a-022]
chromatographic logP [3, 5]: 0.53

CC(NC1CSC1)c1ncnn1-c1ncccn1 (stereo not shown) [a-023]
chromatographic logP [3, 5]: 0.87

CONC(C)c1ncnn1-c1ncccn1 (stereo not shown) [a-024]
chromatographic logP [3, 5]: 0.42

CSCCNC(C)c1ncnn1-c1ccc(C#N)cn1 (stereo not shown) [a-025]
chromatographic logP [3, 5]: 1.65

CC(NCCSC(F)(F)F)c1ncnn1-c1ccc(C#N)cn1 (stereo not shown) [a-026]
chromatographic logP [3, 5]: 2.51
